≈ marks a conversion by molar mass, not a printed value. Entries after “also recorded” stand apart in the source; their conditions may differ. Like-named read-outs stand apart in the source and are kept apart here.
Columns and labels:
[1] = test system: S. Typhimurium TA98, TA100, TA1535, TA1537 Escherichia coli WP2uvrA; conditions: ref Nucro‐Technics, 2011a, cited from earlier work; for Increase in colony counts per plate vs negative controls: positive controls
[2] = cited from earlier work; for Dry powder stability: 100°C up to 24 h
[3] = cited from earlier work; for Decarboxylation product concentration: starting batch held ~0.4% S9379
[4] = oral dosing in rat; ref Senomyx, 2011b; cited from earlier work
Margins of safety = conditions: child; developmental toxicity NOAEL vs chronic APET
[5] = ref applicant dossier, cited from earlier work
[6] = test system: Salmonella Typhimurium strains, TA98 and TA100; conditions: up to 5,000 μg/plate, ref BioReliance, 2011, cited from earlier work
[7] = test system: bone marrow polychromatic erythrocytes; conditions: ref Nucro‐Technics, 2011c, cited from earlier work
[8] = ref Senomyx, 2011a, cited from earlier work
[9] = read-out: Combined mean Cmax; diet 100 mg/kg per day, day 7; ref MPI, 2011b; cited from earlier work
[10] = rat, 60‐min incubation; ref PharmOptima, 2011; cited from earlier work
[11] = human, 60‐min incubation; ref PharmOptima, 2011; cited from earlier work
[12] = 10 mg/kg oral, ref Senomyx, 2013, cited from earlier work; for Average recovered from faeces and urine: 72‐h collection
[13] = male and female rats, highest dose tested; ref MPI, 2011b; cited from earlier work
[14] = gavage, gestation days 6 through 20; ref WIL Research, 2012a; cited from earlier work
[15] = ref WIL Research, 2012b; cited from earlier work
[16] = test system: primary human lymphocytes; conditions: ref Nucro‐Technics, 2011b, cited from earlier work; for Cells with structural chromosomal aberrations: 20 h without S9‐mix
[17] = sulfate salt in sugar cookie, 177°C 10 min, 18 mg/kg
[18] = cake, 177°C 30 min, nominal 5 mg/kg, ref Senomyx, 2016
[19] = cookie, 204°C 8 min, nominal 5 mg/kg, ref Senomyx, 2016
[20] = hard candy, 149°C ~30 min, nominal 15 mg/kg, ref Senomyx, 2016
[21] = 100 mg/kg per day gavage, day 7
[22] = cake, 177°C 30 min, ref Senomyx, 2016
[23] = cookie, 204°C 8 min, ref Senomyx, 2016
[24] = hard candy, 149°C ~30 min, ref Senomyx, 2016

With `[N-]=[N+]=[N-].[Na+]` [sodium azide] as the molecule, how does the “Increase in colony counts per plate vs negative controls” value (“Increase in colony counts per plate” for short) ([1]; experiments without S9‐mix) read?
Its value is at least 3.1 fold.

Which “Increase in colony counts per plate” value ([1]; experiments with S9‐mix) does the source give for `c1ccc2c(c1)cc1ccc3cccc4ccc2c1c34` [benzo[α]pyrene] here?
Its value is at least 3.1 fold.

Which “Increase in colony counts per plate” value ([1]; experiments with S9‐mix) does the source give for `Nc1ccc2cc3ccccc3cc2c1` [2‐aminoanthracene] here?
Its value is at least 3.1 fold.

With `O=P1(N(CCCl)CCCl)NCCCO1` (stereo not shown) [cyclophosphamide monohydrate] as the molecule, how does the “Increase in colony counts per plate” value ([1]; experiments with S9‐mix) read?
The value was at least 3.1 fold.

With `COS(C)(=O)=O` [methyl methanesulfonate] as the molecule, how does the “Increase in colony counts per plate” value ([1]; experiments without S9‐mix) read?
The value was at least 3.1 fold.

For `Cc1nc2cccc(OCC(C)(C)C(=O)NC(C)C)c2c(N)c1C(=O)O.Cc1nc2cccc(OCC(C)(C)C(=O)NC(C)C)c2c(N)c1C(=O)O.O.O.O=S(=O)(O)O` [[FL‐no: 16.130] sulfate salt, 4‐Amino‐5‐(3‐(isopropylamino)‐2,2‐dimethyl‐3‐oxopropoxy)‐2‐methylquinoline‐3‐carboxylic acid hemisulfate monohydrate salt], which Dry powder stability ([2]; ref Senomyx, 2016) is on record?
The Dry powder stability was “stable”.

And the Recovery ([3]; sulfate salt in hard candy, 149°C ~30 min, nominal 24 mg/kg)?
Its Recovery is 104%.

What about the Recovery [3, 17] of the same molecule?
The Recovery was 100%.

What about the “Bioequivalence to the candidate substance (systemic exposure)” value [4] of the same molecule?
Its value is “equivalent”.

For `Nc1c2ccccc2nc2ccccc12` [9‐aminoacridine], which “Increase in colony counts per plate” value ([1]; experiments without S9‐mix) is on record?
Its value is at least 3.1 fold.

Which Margin of safety (Margins of safety) does the source give for `Cc1nc2cccc(OCC(C)(C)C(=O)NC(C)C)c2c(N)c1C(=O)O` [[FL‐no: 16.130], 4‐Amino‐5‐(3‐(isopropylamino)‐2,2‐dimethyl‐3‐oxopropoxy)‐2‐methylquinoline‐3‐carboxylic acid] here?
Its Margin of safety is 27,000.

And the Solubility in ethanol ([5]; 95% ethanol)?
Its Solubility in ethanol is 1,600 mg/L.

And the Solubility ([5]; in water)?
Its Solubility is 700 µg/mL (≈ 1950 µM).

What about the “Stability in aqueous solution” value ([2]; 40°C, pH 2.8, 4.0 and 7.1, 4 weeks, ref applicant dossier) of the same molecule?
Its value is “stable”.

What about the Dry powder stability ([2]; ref Senomyx, 2016) of the same molecule?
Its Dry powder stability is “stable”.

What about the “Dry powder stability at 175°C” value ([2]; 175°C, S9379 only decomposition product, ref Senomyx, 2016) of the same molecule?
Its value is “thermal degradation may take place”.

And the Mean measured concentration [3, 18]?
Its Mean measured concentration is 5.8 mg/kg.

And the Measured concentration [3, 18]?
Its Measured concentration is 5.1 to 6.1 mg/kg.

And the “Stability in model product prototypes” value ([3]; cake, cookie and candy, typical processing conditions)?
The value was “stable”.

What about the Mean measured concentration [3, 19] of the same molecule?
Its Mean measured concentration is 5.4 mg/kg.

What about the Measured concentration [3, 19] of the same molecule?
Its Measured concentration is 5.1 to 5.8 mg/kg.

What about the Mean measured concentration [3, 20] of the same molecule?
Its Mean measured concentration is 13.1 mg/kg.

What about the Measured concentration [3, 20] of the same molecule?
Its Measured concentration is 12.7 to 13.4 mg/kg.

And the “Recovery, % of nominal concentration” value [3, 20]?
The value was 87%.

What about the “Bacterial gene mutation assay result” value ([6]; TA98, TA100, with and without S9‐mix) of the same molecule?
Its value is “not mutagenic; also recorded: Negative”.

And the Bacterial toxicity [6]?
The Bacterial toxicity was “did not result in bacterial toxicity”.

And the PCE/NCE ratio ([7]; any dose tested)?
The PCE/NCE ratio was “No statistically significant decrease”.

What about the “In vivo micronucleus test result” value ([7]; single oral gavage, 500, 1,000 and 2,000 mg/kg bw, 24, 36, 48 h, no evidence of bone marrow exposure) of the same molecule?
The value was “did not induce micronuclei; also recorded: Negative”.

What about the “Combined mean AUC0–24” value [8, 21] of the same molecule?
The value was 232 ng·h/mL.

And the “Combined mean Cmax” value [8, 21]?
Its value is 154 ng/mL.

What about the “Oral bioavailability (%F)” value ([8]; oral gavage, male and female rats, listed as candidate substance) of the same molecule?
Its value is 0.53–1.19%.

And the Accumulation in plasma ([8]; repeated oral dosing, seven consecutive days)?
Its Accumulation in plasma is “No significant accumulation”.

What about the Cmax [9] of the same molecule?
Its Cmax is 317 nM.

And the Metabolism by microsomes [10]?
Its Metabolism by microsomes is “not metabolised”.

What about the Metabolism by microsomes [11] of the same molecule?
Its Metabolism by microsomes is “not metabolised”.

And the Recovered in faeces [12]?
Its Recovered in faeces is 75.5–99.5%.

And the Recovered in urine [12]?
Its Recovered in urine is 0.1–0.6%.

What about the “Average recovered from faeces and urine” value ([12]; female rats) of the same molecule?
Its value is 91.4%.

And the “Average recovered from faeces and urine” value ([12]; male rats)?
Its value is 86.2%.

And the “NOAEL following 13 weeks of dietary administration” value [13]?
The value was 100 mg/kg bw per day.

What about the “Result, dose range‐finding developmental toxicity study” value [14] of the same molecule?
Its value is 1,000 mg/kg bw per day.

And the “NOAEL, developmental toxicity study in the rat” value [15]?
Its value is 1,000 mg/kg bw per day.

With `Cc1nc2cccc(OCC(C)(C)C(=O)NC(C)C)c2c(N)c1C(=O)[O-].[Na+]` [[FL‐no: 16.130] sodium salt, sodium 4‐amino‐5‐(3‐(isopropylamino)‐2,2‐dimethyl‐3‐oxopropoxy)‐2‐methylquinoline‐3‐carboxylate] as the molecule, how does the “Toxicity to tester strains” value ([1]; any concentration including 5,000 μg per plate) read?
Its value is “No toxicity was observed”.

What about the “Bacterial gene mutation assay result” value ([1]; plate incorporation and pre‐incubation, with and without metabolic activation, up to 5,000 μg/plate) of the same molecule?
The value was “Negative”.

What about the “Cells with chromosomal aberrations” value ([16]; 3 h with S9‐mix, 125 μg/mL (control 3.5%)) of the same molecule?
The value was 5.0%.

And the “Cells with chromosomal aberrations” value ([16]; 3 h with S9‐mix, 250 μg/mL)?
Its value is 4.0%.

And the “Cells with chromosomal aberrations” value ([16]; 3 h without S9‐mix, 250 μg/mL)?
The value was 2.0%.

What about the “Cells with structural chromosomal aberrations” value ([16]; 125 μg/mL (control 1.5%)) of the same molecule?
The value was 2.0%.

And the “Cells with structural chromosomal aberrations” value ([16]; 250 μg/mL)?
Its value is 1.0%.

What about the “Cells with structural chromosomal aberrations” value ([16]; 500 μg/mL) of the same molecule?
Its value is 3.0%.

With `Cc1cc(N)c2c(OCC(C)(C)C(=O)NC(C)C)cccc2n1` [S9379, 4‐amino‐5‐(3‐(isopropylamino)‐2,2‐dimethyl‐3‐oxopropoxy)‐2‐methylquinoline] as the molecule, how does the “Decarboxylation product, % of [FL‐no: 16.130] nominal” value [3, 22] read?
The value was 0.82%.

What about the Decarboxylation product concentration [3, 22] of the same molecule?
Its Decarboxylation product concentration is 0.041 mg/kg.

And the “Breakdown product S9379, % of nominal [FL‐no: 16.130] concentration” value ([3]; cake, cookie and candy prototypes)?
The value was under 1%.

What about the “Decarboxylation product, % of [FL‐no: 16.130] nominal” value [3, 23] of the same molecule?
Its value is 0.86%.

What about the Decarboxylation product concentration [3, 23] of the same molecule?
The Decarboxylation product concentration was 0.043 mg/kg.

And the “Decarboxylation product, % of [FL‐no: 16.130] nominal” value [3, 24]?
The value was 0.94%.

And the Decarboxylation product concentration [3, 24]?
Its Decarboxylation product concentration is 0.14 mg/kg.

And the “Concentration of potential degradant S9379” value ([3]; sulfate salt in hard candy, nominal 24 mg/kg)?
Its value is 0.04 mg/kg.

And the “Concentration of potential degradant S9379” value [3, 17]?
Its value is 0.02 mg/kg.

What about the “S9379, % of nominal sulfate salt concentration” value [3, 17] of the same molecule?
The value was 0.1%.

For `O=[N+]([O-])c1ccc2c(c1)Cc1ccccc1-2` [2‐nitrofluorene], which “Increase in colony counts per plate” value ([1]; experiments without S9‐mix) is on record?
The value was at least 3.1 fold.

From publication PMC7010025 (EFSA Journal, 2017)
